Measurements published in the supplement of paper PMC4862054.

Key:
Test in all cases: normalised response (% of control), CellTiter-Glo; higher = more viable cells (100 = DMSO, 0 = benzethonium chloride kill control)
Conditions in all cases: incubation time: 72 h
[1] = tested on: BT-474
Method in brief: (§1)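 Every value is a normalised signal taken at one concentration of a dilution series. Compound was placed in 384-well plates at 5 concentrations in 10-fold steps over a compound-specific 10,000-fold range, and 20 µl of breast cancer cell suspension was seeded onto it. After 72 h, CellTox Green fluorescence (485/520 nm) was measured first and CellTiter-Glo luminescence second, following 10 min at room temperature. Each plate was scaled to 0.1 % DMSO (100) and a positive kill control (0).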

[2] = tested on: BT-549
Method in brief: as §1

[3] = tested on: CAL-120
Method in brief: as §1

[4] = tested on: CAL-148
Method in brief: as §1

[5] = tested on: CAL-51
Method in brief: as §1

[6] = tested on: CAL-85-1
Method in brief: as §1

[7] = tested on: DU-4475
Method in brief: as §1

[8] = tested on: HCC1143
Method in brief: as §1

[9] = tested on: HCC1599
Method in brief: as §1

[10] = tested on: HCC1937
Method in brief: as §1

[11] = tested on: HDQ-P1
Method in brief: as §1

[12] = tested on: Hs578T
Method in brief: as §1

[13] = tested on: MCF-10A
Method in brief: as §1

[14] = tested on: MDA-MB-231
Method in brief: as §1

[15] = tested on: MDA-MB-436
Method in brief: as §1

[16] = tested on: MDA-MB-453
Method in brief: as §1

[17] = tested on: MDA-MB-468
Method in brief: as §1

[18] = tested on: MFM-223
Method in brief: as §1

[19] = tested on: SK-BR-3
Method in brief: as §1

SMILES | normalised response [1] [%] | normalised response [2] [%] | normalised response [3] [%] | normalised response [4] [%] | normalised response [5] [%] | normalised response [6] [%] | normalised response [7] [%] | normalised response [8] [%] | normalised response [9] [%] | normalised response [10] [%] | normalised response [11] [%] | normalised response [12] [%] | normalised response [13] [%] | normalised response [14] [%] | normalised response [15] [%] | normalised response [16] [%] | normalised response [17] [%] | normalised response [18] [%] | normalised response [19] [%]
NC(=O)c1ccc(I)c([N+](=O)[O-])c1 [Iniparib] (1000 nM) | 90 | 101 | 93.2 | 83.3 | 126 | 94.5 | 92.3 | 87.7 | 105 | 97.7 | 97 | 94.6 | 82 | 90 | 88.2 | 89.2 | 83.8 | 81.3 | 78
O=C(Nc1cccnc1)N1CCC(Cc2cccc(Oc3ccc(C(F)(F)F)cn3)c2)CC1 [PF-3845] (1000 nM) | 99.2 | 98.3 | 99 | 99.4 | 98.3 | 95 | 98.3 | 106 | 104 | 99 | 98.1 | 104 | 111 | 106 | 104 | 100 | 95.1 | 109 | 101
c1ccc2c(CCNc3ccc(Nc4ccncc4)cc3)c[nH]c2c1 [Serdemetan] (1000 nM) | 76.4 | 84.2 | 93.7 | 71.1 | 24.4 | 125 | 90.3 | 83.8 | 114 | 88.5 | 90 | 104 | 86.2 | 82.4 | 89.5 | 110 | 77.8 | 97 | 79.6
Oc1ccc2c(c1)CC[C@H](c1ccccc1)[C@@H]2c1ccc(OCCN2CCCC2)cc1 [Lasofoxifene] (100 nM) | 104 | 95.8 | 107 | 105 | 103 | 97.6 | 95.7 | 106 | 107 | 96 | 99.4 | 106 | 114 | 107 | 107 | 104 | 107 | 105 | 113
N#Cc1ccc(COC[C@H]2O[C@@H](n3c(NCc4ccc(Cl)c(Cl)c4)nc4c(N)ncnc43)[C@H](O)[C@@H]2O)cc1 (1000 nM) | 81.8 | 89.9 | 101 | 98.5 | 110 | 107 | 86 | 97.2 | 116 | 86.9 | 98.7 | 86.9 | 96.6 | 89.8 | 109 | 98.4 | 93.7 | 98.9 | 95.3
COCC1(CO)C(=O)C2CCN1CC2 (stereo not given) [Prima-1 Met] (1000 nM) | 102 | 96.8 | 99.3 | 101 | 108 | 105 | 105 | 105 | 106 | 92.2 | 96.3 | 101 | 97.8 | 104 | 106 | 109 | 105 | 103 | 101
COc1cc2ncnc(Nc3ccc(F)c(Cl)c3)c2cc1OCCCN1CCOCC1 [Gefitinib] (1000 nM) | 101 | 97.7 | 103 | 80 | 103 | 58.4 | 99.7 | 96.2 | 104 | 87.9 | 69 | 106 | 34.2 | 101 | 103 | 95.2 | 75.3 | 100 | 51.9
O=C(/C=C/c1cccc(S(=O)(=O)Nc2ccccc2)c1)NO [Belinostat] (1000 nM) | 23.1 | 59 | 39.8 | 28.5 | 31.7 | 44.5 | 23.1 | 47.3 | 44.5 | 69.9 | 68.8 | 50.6 | 55.6 | 36 | 51.9 | 14.4 | 31.8 | 34.2 | 15.7
Cc1ccc(NC(=O)c2ccc(CN3CCN(C)CC3)cc2)cc1Nc1nc(-c2cccnc2)cs1 [Masitinib] (1000 nM) | 104 | 92.9 | 95.5 | 103 | 80.5 | 111 | 103 | 99 | 106 | 101 | 98.8 | 102 | 105 | 105 | 105 | 89.7 | 89.9 | 103 | 105
CCc1c2c(nc3ccc(OC(=O)N4CCC(N5CCCCC5)CC4)cc13)-c1cc3c(c(=O)n1C2)COC(=O)[C@]3(O)CC [Irinotecan] (1000 nM) | 91 | 78.2 | 83.7 | 66.3 | 96.6 | 104 | 82.1 | 88.1 | 109 | 91.8 | 95.5 | 101 | 88.3 | 98.1 | 64.5 | 152 | 82 | 104 | 78.8
COCC[n+]1c2c(n(Cc3cnccn3)c1C)C(=O)c1ccccc1C2=O [YM155] (1000 nM) | 0.29 | -0.05 | 3.05 | -0.23 | -0.05 | -0.48 | 1.45 | 0.6 | -0.01 | 0.41 | -0.17 | 25.6 | -0.7 | -0.22 | -0.32 | 9.91 | -0.57 | 10.7 | -0.16
CC(C)C[C@@H](C(=O)N[C@H](C(=O)OC1CCCC1)c1ccccc1)[C@H](O)C(=O)NO [Tosedostat] (1000 nM) | 40.6 | 55.9 | 43.4 | 72.9 | 91 | 48.2 | 88.4 | 69 | 96.6 | 67.4 | 74.1 | 84.6 | 87.3 | 59.7 | 73.6 | 48.7 | 28.7 | 70.5 | 76.2
CNC(=O)c1cc(Oc2ccc(NC(=O)Nc3ccc(Cl)c(C(F)(F)F)c3)c(F)c2)ccn1 [Regorafenib] (1000 nM) | 91.8 | 105 | 94.9 | 99.1 | 65.6 | 109 | 97.3 | 93.5 | 102 | 103 | 90.9 | 93.9 | 90.6 | 99 | 101 | 97.2 | 105 | 73.4 | 102
O=C(Nc1ccncc1)C(=O)c1cn(Cc2ccc(Cl)cc2)c2ccccc12 [Indibulin] (1000 nM) | 70.8 | 42.8 | 66.9 | 93.2 | 25.5 | 38.3 | 91.8 | 67.2 | 63.1 | 73.9 | 80.1 | 57.8 | 89.8 | 78 | 42.2 | 67.8 | 37.7 | 60 | 33.2
CN(C)CCOc1ccc(/C(=C(/CCCl)c2ccccc2)c2ccccc2)cc1 [Toremifene] (1000 nM) | 98.7 | 104 | 98.5 | 99.2 | 108 | 99.2 | 98.3 | 96.3 | 102 | 96.7 | 96.6 | 107 | 92.3 | 92.6 | 104 | 106 | 97.6 | 101 | 106
COc1cc(OC2CCN(C)CC2)ccc1Nc1ncc2c(n1)n(C1CCCC1)c(=O)n2C [AZ 3146] (1000 nM) | 96.5 | 104 | 98 | 94.5 | 74.5 | 98.2 | 94.6 | 99.2 | 112 | 97.2 | 98.4 | 100 | 92.5 | 96.7 | 110 | 117 | 104 | 98.2 | 74.6
C=C1C[C@@H]2[C@H](CC[C@]3(C)C(=O)CC[C@@H]23)[C@@]2(C)C=CC(=O)C=C12 [Exemestane] (1000 nM) | 103 | 92.5 | 102 | 97.7 | 80.5 | 98.3 | 105 | 107 | 115 | 103 | 99.3 | 100 | 112 | 106 | 102 | 105 | 101 | 110 | 108
O=P1(N(CCCl)CCCl)NCCCO1 (stereo not given) [Cyclophosphamide] (4000 nM) | 93.1 | 103 | 94.4 | 100 | 99.4 | 92.1 | 104 | 104 | 109 | 99 | 98 | 111 | 103 | 99.5 | 97.8 | 111 | 92.9 | 106 | 107
CN(C)c1nc(N(C)C)nc(N(C)C)n1 [Altretamine] (1000 nM) | 101 | 103 | 99.5 | 95.2 | 108 | 102 | 98.9 | 103 | 118 | 99.4 | 105 | 110 | 103 | 100 | 99.3 | 115 | 107 | 103 | 107
Cc1[nH]c2ccccc2c1CCNCc1ccc(/C=C/C(=O)NO)cc1 [Panobinostat] (100 nM) | 13.4 | 46.2 | 41.5 | 3.76 | 24.6 | 25.9 | 4.91 | 26.3 | 24.2 | 63.1 | 62.3 | 27.4 | 49.1 | 10.2 | 55 | 3.15 | 28.2 | 35.2 | 1.76
